How the values were obtained:
[1] = molecular target: T1, pseudo-kinase domain (JH2, amino-acids 536-812) of human V617F mutant JAK2 (Homo sapiens, UniProt O60674, F794H/V617F/W659A/W777A); test: JAK2 LanthaScreen JH2-V617F Binding Assay; conditions: JAK2 JH2-V617F 0.26 nM, 50 nM tracer, 1 hour at 25° C.; read-out: JH2 BIND V617F
T1 construct: pseudo-kinase domain (JH2, amino-acids 536-812 with 3 surface mutations W659A, W777A, F794H); His (C); purchased BPS Bioscience 79498; host or cells: baculovirus expression system
How it was run: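 Binding was measured as TR-FRET displacement of 50 nM tracer from 0.26 nM biotinylated His-Avi protein, incubated one hour at 25° C; IC50 from a four-parameter fit.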

[2] = molecular target: T2, pseudo-kinase domain (JH2, amino-acids 536-812) of human Wild Type JAK2 (Homo sapiens, UniProt O60674, F794H/W659A/W777A); test: JAK2 LanthaScreen JH2-WT Binding Assay; conditions: JAK2 JH2-WT 0.145 nM, 50 nM tracer, 1 hour at 25° C.; read-out: JH2 BIND WT
T2 construct: pseudo-kinase domain (JH2, amino-acids 536-812 with 3 surface mutations W659A, W777A, F794H); His (C); purchased BPS Bioscience 79463; host or cells: baculovirus expression system
How it was run: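 Biotinylated C-terminal His-Avi-tagged JH2 (residues 536-812, baculovirus-expressed) at 0.145 nM was incubated with serially diluted compounds, 50 nM fluorescent JAK2-JH2 tracer and 0.25 nM streptavidin-Tb cryptate in pH 7.5 Tris buffer with MgCl2, Brij-35, BSA, EGTA, glycerol and DTT. LanthaScreen TR-FRET was read after 1 hour at 25° C; IC50 came from four-parameter fits.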

[3] = molecular target: catalytic domain (JH1, amino acids 808-1132) of human JAK2 (Homo sapiens, UniProt O60674); test: JAK2 HTRF Enzyme Activity Assay; type: biochemical; conditions: ATP 30 µM, 60 minutes at 25° C.; read-out: V617F ENZ 30 UM
[4] = molecular target: T3, catalytic domain (JH1, amino acids 826-1132) of human JAK2 (Homo sapiens, UniProt O60674); test: JAK2 LanthaScreen JH1 Binding Assay; conditions: JAK2 JH1 1.5 nM, 50 nM tracer, 2 hours at 25° C.; read-out: JH1 BIND
T3 construct: catalytic domain (JH1, amino acids 826-1132) of human JAK2; FLAG (N); biotin (biotinylated); purchased Carna Biosciences 08-445-20N; host or cells: baculovirus expression system
How it was run: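 TR-FRET tracer-displacement format: compound IC50 from four-parameter curves after 2 h at 25° C. Reaction held 1.5 nM biotinylated, FLAG-tagged JH1 (aa 826-1132), 50 nM tracer, 0.5 nM Streptavidin-Tb, pH 7.5 Tris buffer; 2 mM ATP set nonspecific background.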

T1 sequence (O60674 536-812 V617F/W659A/W777A/F794H): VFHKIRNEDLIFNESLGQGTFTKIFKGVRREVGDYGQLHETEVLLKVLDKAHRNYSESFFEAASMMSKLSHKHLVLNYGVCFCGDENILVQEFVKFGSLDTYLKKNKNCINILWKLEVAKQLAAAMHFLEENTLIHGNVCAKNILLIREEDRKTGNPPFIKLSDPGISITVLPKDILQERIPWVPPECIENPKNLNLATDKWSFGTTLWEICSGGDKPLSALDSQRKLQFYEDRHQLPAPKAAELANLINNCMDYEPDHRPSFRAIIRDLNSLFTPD
catalytic domain (JH1, amino acids 808-1132) of human JAK2, sequence (O60674 808-1132 limits assumed): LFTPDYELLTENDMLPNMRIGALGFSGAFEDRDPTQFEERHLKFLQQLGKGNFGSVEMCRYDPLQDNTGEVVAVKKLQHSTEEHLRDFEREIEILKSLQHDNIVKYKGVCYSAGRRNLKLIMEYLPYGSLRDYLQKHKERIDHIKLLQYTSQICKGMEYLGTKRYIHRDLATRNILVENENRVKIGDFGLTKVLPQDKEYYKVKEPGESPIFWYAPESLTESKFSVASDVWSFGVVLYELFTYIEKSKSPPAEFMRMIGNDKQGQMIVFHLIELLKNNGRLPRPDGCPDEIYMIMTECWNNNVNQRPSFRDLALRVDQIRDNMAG
T3 sequence (O60674 826-1132): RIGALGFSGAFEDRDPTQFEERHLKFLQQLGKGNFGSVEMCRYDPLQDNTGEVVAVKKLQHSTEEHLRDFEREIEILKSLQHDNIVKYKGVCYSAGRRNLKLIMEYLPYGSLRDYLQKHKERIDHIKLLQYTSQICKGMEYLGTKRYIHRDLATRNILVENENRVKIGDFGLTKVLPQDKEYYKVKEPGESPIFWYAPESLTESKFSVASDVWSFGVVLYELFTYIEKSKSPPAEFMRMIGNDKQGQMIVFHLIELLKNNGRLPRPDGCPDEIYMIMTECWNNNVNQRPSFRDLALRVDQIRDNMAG
T2 sequence (O60674 536-812 W659A/W777A/F794H): as the sequence (O60674 536-812 V617F/W659A/W777A/F794H) above, with F82V counted along it

| Structure (SMILES) | IC50 [1] [nM] | IC50 [2] [nM] | IC50 [3] [nM] | IC50 [4] [nM] |
| --- | --- | --- | --- | --- |
| COC(=O)N[C@@H]1CC[C@@H](n2c(=O)n(C)c3cnc(Nc4ccnc(N5CCCCC5)n4)cc32)C1 [Example 66, Methyl ((1R,3R)-3-(3-methyl-2-oxo-6-((2-(piperidin-1-yl)pyrimidin-4-yl)amino)-2,3-dihydro-1H-imidazo[4,5-c]pyridin-1-yl)cyclopentyl)carbamate] | 10 to 100 | ≤ 10 | > 1000 | > 1000 |
| COC(=O)N[C@@H]1CC[C@@H](n2c(=O)n(C)c3cnc(Nc4cc(C)cc(-c5ccnc(OC)c5)n4)cc32)C1 [Example 67, Methyl ((1R,3R)-3-(6-((2′-methoxy-4-methyl-[2,4′-bipyridin]-6-yl)amino)-3-methyl-2-oxo-2,3-dihydro-1H-imidazo[4,5-c]pyridin-1-yl)cyclopentyl)carbamate] | ≤ 10 | ≤ 10 | > 1000 | > 1000 |
| COC(=O)N[C@@H]1CC[C@@H](n2c(=O)n(C)c3cnc(Nc4nc(-c5ccncc5)cs4)cc32)C1 [Example 68, Methyl ((1R,3R)-3-(3-methyl-2-oxo-6-((4-(pyridin-4-yl)thiazol-2-yl)amino)-2,3-dihydro-1H-imidazo[4,5-c]pyridin-1-yl)cyclopentyl)carbamate] | 500 to 1000 | 500 to 1000 | > 1000 | > 1000 |
| COC(=O)N[C@@H]1CC[C@@H](n2c(=O)n(C)c3cnc(Nc4ccc(F)c(-c5ccc(C(F)(F)F)nc5)n4)cc32)C1 [Example 69, Methyl ((1R,3R)-3-(6-((3-fluoro-6′-(trifluoromethyl)-[2,3′-bipyridin]-6-yl)amino)-3-methyl-2-oxo-2,3-dihydro-1H-imidazo[4,5-c]pyridin-1-yl)cyclopentyl)carbamate] | ≤ 10 | ≤ 10 | > 1000 | > 1000 |
| [2H]C([2H])([2H])n1c(=O)n([C@@H]2CC[C@@H](NC(=O)OC)C2)c2cc(Nc3cc(CN4CC[C@H](F)C4)cc(-c4ccc5c(c4)OCCO5)n3)ncc21 [Example 70, Methyl ((1R,3R)-3-(6-((6-(2,3-dihydrobenzo[b][1,4]dioxin-6-yl)-4-(((S)-3-fluoropyrrolidin-1-yl)methyl)pyridin-2-yl)amino)-3-(methyl-d3)-2-oxo-2,3-dihydro-1H-imidazo[4,5-c]pyridin-1-yl)cyclopentyl)carbamate] | ≤ 10 | ≤ 10 | > 1000 | > 1000 |
| COC(=O)N[C@@H]1CC[C@@H](n2c(=O)n(C)c3cnc(Nc4ccc(F)c(-c5ccc(CC#N)cc5)n4)cc32)C1 [Example 71, Methyl ((1R,3R)-3-(6-((6-(4-(cyanomethyl)phenyl)-5-fluoropyridin-2-yl)amino)-3-methyl-2-oxo-2,3-dihydro-1H-imidazo[4,5-c]pyridin-1-yl)cyclopentyl)carbamate] | ≤ 10 | ≤ 10 | > 1000 | > 1000 |
| COC(=O)N[C@@H]1CC[C@@H](n2c(=O)n(C)c3cnc(Nc4ccc(F)c(-c5ccc(C6CC6)cc5)n4)cc32)C1 [Example 72, Methyl ((1R,3R)-3-(6-((6-(4-cyclopropylphenyl)-5-fluoropyridin-2-yl)amino)-3-methyl-2-oxo-2,3-dihydro-1H-imidazo[4,5-c]pyridin-1-yl)cyclopentyl)carbamate] | 10 to 100 | ≤ 10 | > 1000 | > 1000 |
| COC(=O)N[C@@H]1CC[C@@H](n2c(=O)n(C)c3cnc(Nc4ccc(F)c(-c5ccc(OC(F)(F)F)cc5)n4)cc32)C1 [Example 73, Methyl ((1R,3R)-3-(6-((5-fluoro-6-(4-(trifluoromethoxy)phenyl)pyridin-2-yl)amino)-3-methyl-2-oxo-2,3-dihydro-1H-imidazo[4,5-c]pyridin-1-yl)cyclopentyl)carbamate] | 10 to 100 | 10 to 100 | > 1000 | > 1000 |
| [2H]C([2H])([2H])n1c(=O)n([C@@H]2CC[C@@H](NC(=O)OC)C2)c2cc(Nc3cc(CN4CCOCC4)cc(-c4ccc5c(c4)OCCO5)n3)ncc21 [Example 74, Methyl ((1R,3R)-3-(6-((6-(2,3-dihydrobenzo[b][1,4]dioxin-6-yl)-4-(morpholinomethyl)pyridin-2-yl)amino)-3-(methyl-d3)-2-oxo-2,3-dihydro-1H-imidazo[4,5-c]pyridin-1-yl)cyclopentyl)carbamate] | ≤ 10 | ≤ 10 | > 1000 | > 1000 |
| [2H]C([2H])([2H])n1c(=O)n([C@@H]2CC[C@@H](NC(=O)OC)C2)c2cc(Nc3ccnc(-c4ccnc(OC)c4)n3)ncc21 [Example 75, Methyl ((1R,3R)-3-(6-((2-(2-methoxypyridin-4-yl)pyrimidin-4-yl)amino)-3-(methyl-d3)-2-oxo-2,3-dihydro-1H-imidazo[4,5-c]pyridin-1-yl)cyclopentyl)carbamate] | ≤ 10 | ≤ 10 | > 1000 | > 1000 |
| [2H]C([2H])([2H])n1c(=O)n([C@@H]2CC[C@@H](NC(=O)OC)C2)c2cc(Nc3cc(C(=O)N4CCN5CCCCC5C4)cc(-c4ccc5c(c4)OCCO5)n3)ncc21 (stereo partly drawn) [Example 76, Methyl ((1R,3R)-3-(6-((6-(2,3-dihydrobenzo[b][1,4]dioxin-6-yl)-4-(octahydro-2H-pyrido[1,2-a]pyrazine-2-carbonyl)pyridin-2-yl)amino)-3-(methyl-d3)-2-oxo-2,3-dihydro-1H-imidazo[4,5-c]pyridin-1-yl)cyclopentyl)carbamate] | ≤ 10 | ≤ 10 | > 1000 | > 1000 |
| COC(=O)N[C@@H]1CC[C@@H](n2c(=O)n(C)c3cnc(Nc4ccnc(N5CCC6(CC6)C5)n4)cc32)C1 [Example 77, Methyl ((1R,3R)-3-(6-((2-(5-azaspiro[2.4]heptan-5-yl)pyrimidin-4-yl)amino)-3-methyl-2-oxo-2,3-dihydro-1H-imidazo[4,5-c]pyridin-1-yl)cyclopentyl)carbamate] | ≤ 10 | ≤ 10 | > 1000 | > 1000 |
| COC(=O)N[C@@H]1CC[C@@H](n2c(=O)n(C)c3cnc(Nc4ccnc(N5CCC(F)(F)C5)n4)cc32)C1 [Example 78, Methyl ((1R,3R)-3-(6-((2-(3,3-difluoropyrrolidin-1-yl)pyrimidin-4-yl)amino)-3-methyl-2-oxo-2,3-dihydro-1H-imidazo[4,5-c]pyridin-1-yl)cyclopentyl)carbamate] | ≤ 10 | ≤ 10 | > 1000 | > 1000 |
| COC(=O)N[C@@H]1CC[C@@H](n2c(=O)n(C)c3cnc(Nc4ccnc(N5CCC(C(F)(F)F)CC5)n4)cc32)C1 [Example 79, Methyl ((1R,3R)-3-(3-methyl-2-oxo-6-((2-(4-(trifluoromethyl)piperidin-1-yl)pyrimidin-4-yl)amino)-2,3-dihydro-1H-imidazo[4,5-c]pyridin-1-yl)cyclopentyl)carbamate] | ≤ 10 | ≤ 10 | > 1000 | > 1000 |
| [2H]C([2H])([2H])n1c(=O)n([C@@H]2CC[C@@H](NC(=O)OC)C2)c2cc(Nc3cc(C(=O)N4CC[C@@H](F)C4)cc(-c4ccc5c(c4)OCCO5)n3)ncc21 [Example 80, Methyl ((1R,3R)-3-(6-((6-(2,3-dihydrobenzo[b][1,4]dioxin-6-yl)-4-((R)-3-fluoropyrrolidine-1-carbonyl)pyridin-2-yl)amino)-3-(methyl-d3)-2-oxo-2,3-dihydro-1H-imidazo[4,5-c]pyridin-1-yl)cyclopentyl)carbamate] | ≤ 10 | ≤ 10 | > 1000 | > 1000 |
| COC(=O)N[C@@H]1CC[C@@H](n2c(=O)n(C)c3cnc(Nc4ccn(-c5ccncc5)n4)cc32)C1 [Example 81, Methyl ((1R,3R)-3-(3-methyl-2-oxo-6-((1-(pyridin-4-yl)-1H-pyrazol-3-yl)amino)-2,3-dihydro-1H-imidazo[4,5-c]pyridin-1-yl)cyclopentyl)carbamate] | 100 to 500 | 100 to 500 | > 1000 | > 1000 |
